# Data taken from PubChem BioAssay (NCI).
#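 Cells were grown in 96-well plates and exposed to each compound for 48 hours at five concentrations; endpoints were interpolated linearly between bracketing concentrations, or set to the highest concentration if not reached. Definition used: TGI = concentration required for complete inhibition of growth.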
# How the values were obtained:
# Assay in all cases: DTP human tumour cell line panel, 48 h
# MCF7 breast = system: MCF7 breast
# HS 578T breast = system: HS 578T breast
# SK-MEL-5 melanoma = system: SK-MEL-5 melanoma
# UACC-62 melanoma = system: UACC-62 melanoma
# BT-549 breast = system: BT-549 breast
# UACC-257 melanoma = system: UACC-257 melanoma
# DU-145 prostate = system: DU-145 prostate
# 786-0 renal = system: 786-0 renal
# MOLT-4 leukemia = system: MOLT-4 leukemia
# MDA-MB-231 breast = system: MDA-MB-231 breast
# UO-31 renal = system: UO-31 renal
# A498 renal = system: A498 renal
# PC-3 prostate = system: PC-3 prostate
# U251 CNS = system: U251 CNS
# MDA-N = system: MDA-N
# OVCAR-5 ovarian = system: OVCAR-5 ovarian
# MALME-3M melanoma = system: MALME-3M melanoma
# RPMI-8226 leukemia = system: RPMI-8226 leukemia
# T-47D breast = system: T-47D breast
# SK-OV-3 ovarian = system: SK-OV-3 ovarian
# SK-MEL-2 melanoma = system: SK-MEL-2 melanoma
# SF-268 CNS = system: SF-268 CNS
# NCI/ADR-RES ovarian = system: NCI/ADR-RES ovarian
# OVCAR-8 ovarian = system: OVCAR-8 ovarian
# HL-60(TB) leukemia = system: HL-60(TB) leukemia
# RXF 393 renal = system: RXF 393 renal
# OVCAR-4 ovarian = system: OVCAR-4 ovarian
# EKVX NSCLC = system: EKVX NSCLC
# SNB-19 CNS = system: SNB-19 CNS
# SW-620 colon = system: SW-620 colon
# MDA-MB-435 = system: MDA-MB-435
# A549 NSCLC = system: A549 NSCLC
# HCT-116 colon = system: HCT-116 colon
# LOX IMVI melanoma = system: LOX IMVI melanoma
# M14 melanoma = system: M14 melanoma
# CAKI-1 renal = system: CAKI-1 renal
# SR leukemia = system: SR leukemia
# HOP-92 NSCLC = system: HOP-92 NSCLC
# NCI-H23 lung = system: NCI-H23 lung
# NCI-H522 lung = system: NCI-H522 lung
# K-562 leukemia = system: K-562 leukemia
# NCI-H460 lung = system: NCI-H460 lung
# HCC-2998 colon = system: HCC-2998 colon
# HOP-62 NSCLC = system: HOP-62 NSCLC
# HT29 colon = system: HT29 colon
# KM12 colon = system: KM12 colon
# IGROV1 ovarian = system: IGROV1 ovarian
# OVCAR-3 ovarian = system: OVCAR-3 ovarian
# SN12C renal = system: SN12C renal
# HCT-15 colon = system: HCT-15 colon
# ACHN renal = system: ACHN renal
# NCI-H226 lung = system: NCI-H226 lung
# COLO 205 colon = system: COLO 205 colon
# CCRF-CEM leukemia = system: CCRF-CEM leukemia
# SF-295 CNS = system: SF-295 CNS
# SNB-75 CNS = system: SNB-75 CNS
# SK-MEL-28 melanoma = system: SK-MEL-28 melanoma
structure (smiles),measurement,setting,value
CC1(C)CC[C@]2(C(=O)O)CC[C@]3(C)C(=CC[C@@H]4[C@@]5(C)CC[C@H](OC6OC(CO)C(O)C(O)C6OC6OC(CO)C(O)C(O)C6O)C(C)(C)[C@@H]5CC[C@]43C)[C@@H]2C1 (some centres not stated),TGI,MCF7 breast,36.7 µM
same,TGI,HS 578T breast,51.9 µM
same,TGI,SK-MEL-5 melanoma,33.7 µM
same,TGI,UACC-62 melanoma,34.2 µM
same,TGI,BT-549 breast,36.2 µM
same,TGI,UACC-257 melanoma,42 µM
same,TGI,DU-145 prostate,31.4 µM
same,TGI,786-0 renal,30.1 µM
same,TGI,MOLT-4 leukemia,48.3 µM
same,TGI,MDA-MB-231 breast,51.9 µM
same,TGI,UO-31 renal,35.8 µM
same,TGI,A498 renal,34 µM
same,TGI,PC-3 prostate,31.2 µM
same,TGI,U251 CNS,16.4 µM
same,TGI,MDA-N,34.8 µM
same,TGI,OVCAR-5 ovarian,12.5 µM
same,TGI,MALME-3M melanoma,30.1 µM
same,TGI,RPMI-8226 leukemia,62.3 µM
same,TGI,T-47D breast,44.8 µM
same,TGI,SK-OV-3 ovarian,31.9 µM
same,TGI,SK-MEL-2 melanoma,2.48 µM
same,TGI,SF-268 CNS,32 µM
same,TGI,NCI/ADR-RES ovarian,49.2 µM
same,TGI,OVCAR-8 ovarian,35.2 µM
same,TGI,HL-60(TB) leukemia,42.8 µM
same,TGI,RXF 393 renal,37.3 µM
same,TGI,OVCAR-4 ovarian,30.5 µM
same,TGI,EKVX NSCLC,35.4 µM
same,TGI,SNB-19 CNS,32.8 µM
same,TGI,SW-620 colon,48.3 µM
same,TGI,MDA-MB-435,35.7 µM
same,TGI,A549 NSCLC,33.7 µM
same,TGI,HCT-116 colon,31.9 µM
same,TGI,LOX IMVI melanoma,82.4 µM
same,TGI,M14 melanoma,31.2 µM
same,TGI,CAKI-1 renal,35.4 µM
same,TGI,SR leukemia,68 µM
same,TGI,HOP-92 NSCLC,31.7 µM
same,TGI,NCI-H23 lung,53.7 µM
same,TGI,NCI-H522 lung,38 µM
same,TGI,K-562 leukemia,44.6 µM
same,TGI,NCI-H460 lung,41.5 µM
same,TGI,HCC-2998 colon,36.2 µM
same,TGI,HOP-62 NSCLC,32.7 µM
same,TGI,HT29 colon,30.2 µM
same,TGI,KM12 colon,29.4 µM
same,TGI,IGROV1 ovarian,34.6 µM
same,TGI,OVCAR-3 ovarian,29.9 µM
same,TGI,SN12C renal,33.2 µM
same,TGI,HCT-15 colon,35.3 µM
same,TGI,ACHN renal,32.7 µM
same,TGI,NCI-H226 lung,34.7 µM
same,TGI,COLO 205 colon,28.7 µM
same,TGI,CCRF-CEM leukemia,46.5 µM
same,TGI,SF-295 CNS,36 µM
same,TGI,SNB-75 CNS,36.3 µM
same,TGI,SK-MEL-28 melanoma,28.9 µM
